Reference: patent publication US8609700B2, “Pyridine compounds for controlling invertebrate pests I” (BASF SE, priority 2010, dated 2013)

Legend:
Format in all cases: in vivo
[1] = system: Boll Weevil (Anthonomus grandis); assay: Boll weevil, insect diet in 24-well-microtiter plates; settings: 120 h, test solution 2500 mg/L, sprayed onto insect diet, 5 days, read-out: mortality (egg and larval)
Procedure: II.5 Boll Weevil (Anthonomus grandis)
The compounds were formulated in 75:25 (vol/vol) water:DMSO.
For evaluating control of boll weevil (Anthonomus grandis) the test unit consisted of 24-well-microtiter plates containing an insect diet and 20-30 A. grandis eggs. Different concentrations of formulated compounds were sprayed onto the insect diet at 20 μl, using a custom built micro atomizer, at two replications. After application, the microtiter plates were incubated at 23±1° C. and 50±5% relative humidity for 5 days. Egg and larval mortality was then visually assessed.

[2] = system: Brown Planthopper (Nilaparvata lugens); assay: Brown planthopper, rice seedlings sprayed; settings: 500 ppm, after 72 hours
Procedure: II.7 Activity Against Brown Planthopper (Nilaparvata lugens)
The active compounds were formulated as a 50:50 (vol/vol) acetone:water solution. Surfactant (Alkamuls EL 620) was added at the rate of 0.1% (vol/vol).
Rice seedlings were cleaned and washed 24 h before spraying. Potted rice seedlings were sprayed with 5 ml test solution, air dried, placed in cages and inoculated with 10 adults. Treated rice plants were kept at 28-29° C. and relative humidity of 50-60%. Percent mortality was recorded after 72 hours.

[3] = system: Silverleaf Whitefly (Bemisia argentifolii, Adult); assay: Silverleaf whitefly, cotton plants sprayed; settings: 300 ppm, 3 days after treatment
Procedure: II.8 Silverleaf Whitefly (Bemisia argentifolii, Adult)
(§1) The active compounds were formulated in cyclohexanone as a 10,0000 ppm solution supplied in 1.3 ml ABgene® tubes. These tubes were inserted into an automated electrostatic sprayer equipped with an atomizing nozzle and they served as stock solutions for which lower dilutions were made in 50% acetone:50% water (vol/vol). A nonionic surfactant (Kinetic®) was included in the solution at a volume of 0.01% (vol/vol).
Cotton plants at the cotyledon stage (one plant per pot) were sprayed by an automated electrostatic plant sprayer equipped with an atomizing spray nozzle. The plants were dried in the sprayer fume hood and then removed from the sprayer. Each pot was placed into a plastic cup and 10 to 12 whitefly adults (approximately 3-5 days old) were introduced. The insects were collected using an aspirator and 0.6 cm, nontoxic Tygon® tubing (R-3603) connected to a barrier pipette tip. The tip, containing the collected insects, was then gently inserted into the soil containing the treated plant, allowing insects to crawl out of the tip to reach the foliage for feeding. Cups were covered with a reusable screened lid (150-micron mesh polyester screen PeCap from Tetko, Inc.). […] Mortality was assessed 3 days after treatment, compared to untreated control plants.

[4] = system: Cotton Aphid (Aphis gossypii, Mixed Life Stages); assay: Cotton aphid, method b) (electrostatic sprayer); settings: 300 ppm; infested cotton plants sprayed; after 5 days
Procedure: II.1 Cotton Aphid (Aphis gossypii, Mixed Life Stages)
as §1, with “sur25 factant” for “surfactant”
Cotton plants at the cotyledon stage were infested with aphids prior to treatment by placing a heavily infested leaf from the main aphid colony on top of each cotyledon. Aphids were allowed to transfer overnight to accomplish an infestation of 80-100 aphids per plant and the host leaf was removed. The infested plants were then sprayed by an automated electrostatic plant sprayer equipped with an atomizing spray nozzle. The plants were dried in the sprayer fume hood, removed from the sprayer, and then maintained in a growth room under fluorescent lighting in a 24-hr photoperiod at 25° C. and 20-40% relative humidity. Aphid mortality on the treated plants, relative to mortality on untreated control plants, was determined after 5 days.

CN(C(=O)c1cc(Cl)sc1Cl)c1cccnc1 [Compound 28, 2,5-Dichloro-thiophene-3-carboxylic acid methyl-pyridin-3-yl-amide]
mortality at 2500 µg/mL [1]: ≥ 50%

CN(C(=O)c1cccn1C)c1cccnc1 [Compound 14]
mortality in comparison with untreated controls [2]: at least 50%

O=C(Nc1cccnc1)c1sccc1C(F)(F)F [Compound 7]
mortality in comparison with untreated controls [3]: at least 75%

O=C(Nc1cccnc1)c1cscc1C(F)(F)F [Compound 26]
mortality in comparison with untreated controls [4]: at least 75%
